Results from patent US8481531B2, “Bicyclic heterocyclyl derivatives as FGFR kinase inhibitors for therapeutic use” (Astex Therapeutics Ltd, priority 2009, dated 2013).

Experiments:
Ba/F3-TEL-FGFR3 cells = biological target: T1, Ba/F3-TEL-FGFR3 cells (Homo sapiens, UniProt P22607); assay: Ba/F3-TEL-FGFR3 cell proliferation assay (Alamar Blue); format: cell-based; conditions: 72 hours; read-out: BaF3-TEL-FGFR3 prolif
T1 construct: fused on or other part: P41212 (Transcription factor ETV6)
Procedure: (§1) Ba/F3-TEL-FGFR3 & Ba/F3 (WT) Cell Proliferation Assays
(§2) Stably transfected Ba/F3-TEL-FGFR3 cells were plated out into black 96-well tissue culture plates with clear bottoms in RPMI medium containing 10% FBS and 0.25 mg/ml G418 at a density of 5×10^3 cells/well (200 μl per well). The parental wild-type Ba/F3 cells (DSMZ no.: ACC 300) were plated out into black 96-well tissue culture plates with clear bottoms in RPMI medium containing 10% FBS and 2 ng/ml mouse IL-3 (R&D Systems) at a density of 2.5×10^3 cells/well (200 μl per well). Plates were placed in an incubator overnight before adding the compounds the following day. Dilutions of compounds were made in DMSO starting at 10 mM and were diluted into the wells to give a final DMSO concentration of 0.1% in assay. Compounds were left on the cells for 72 hours before the plates were removed from the incubator and 20 μl of Alamar Blue™ (Biosource) was added to each well. Plates were placed in the incubator for 4-6 hours before reading plates at 535 nm (excitation)/590 nm (emission) on a Fusion plate reader (Packard). Where inhibition is high an IC50 can be determined.

FGFR3 = biological target: T2, FGFR3 (Homo sapiens, UniProt P22607); assay: FGFR3 in vitro kinase inhibitory activity assay (TRF); format: biochemical; conditions: 8 μM ATP, 3 hours; read-out: FGFR3 IC50(μM) or % I
T2 construct: purchased Upstate
T2 sequence (P22607 23-806): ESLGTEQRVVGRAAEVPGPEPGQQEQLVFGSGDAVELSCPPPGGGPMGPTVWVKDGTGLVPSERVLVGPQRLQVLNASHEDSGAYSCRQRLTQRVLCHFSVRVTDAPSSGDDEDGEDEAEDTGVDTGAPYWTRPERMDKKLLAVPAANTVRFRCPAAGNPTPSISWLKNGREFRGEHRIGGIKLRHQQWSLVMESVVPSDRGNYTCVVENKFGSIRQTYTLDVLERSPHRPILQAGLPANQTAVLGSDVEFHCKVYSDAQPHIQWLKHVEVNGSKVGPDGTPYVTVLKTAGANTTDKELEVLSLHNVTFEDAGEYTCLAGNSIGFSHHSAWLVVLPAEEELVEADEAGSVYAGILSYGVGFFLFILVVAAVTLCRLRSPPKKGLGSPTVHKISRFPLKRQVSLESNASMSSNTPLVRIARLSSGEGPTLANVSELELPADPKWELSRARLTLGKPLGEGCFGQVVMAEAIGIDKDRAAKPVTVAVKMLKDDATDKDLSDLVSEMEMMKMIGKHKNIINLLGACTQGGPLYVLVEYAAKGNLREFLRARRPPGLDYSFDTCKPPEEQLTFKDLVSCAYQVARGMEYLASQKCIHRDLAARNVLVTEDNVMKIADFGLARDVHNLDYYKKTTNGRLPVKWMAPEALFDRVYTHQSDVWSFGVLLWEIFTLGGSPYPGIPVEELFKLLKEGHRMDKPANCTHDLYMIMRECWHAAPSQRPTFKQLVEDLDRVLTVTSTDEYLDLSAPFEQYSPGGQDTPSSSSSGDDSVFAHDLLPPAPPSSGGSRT
Procedure: (§3) FGFR3, VEGFR2 and PDGFR in vitro Kinase Inhibitory Activity Assays
(§4) Enzymes (from Upstate), prepared at 2× final concentration, were incubated with test compounds, biotinylated Flt3 substrate (biotin-VASSDNEYFYVDF) (Cell Signalling Technology Inc.) and ATP in the appropriate assay buffer (Table 1). The reaction was allowed to proceed for 3 hours (FGFR3), 1 hour (VEGFR2, PDGFR-beta) at room temperature on a plate shaker at 700 rpm before being stopped with 35 mM EDTA, pH 8 (FGFR3, VEGFR2) or 55 mM EDTA, pH 8 (PDGFR-beta). 5× detection mix (50 mM HEPES pH 7.5, 0.1% BSA, 11.34 nM Eu-anti-pY (PY20) (PerkinElmer) 74 nM SA-XL665 (Cisbio) for FGFR3, 50 mM HEPES, pH 7.5, 0.1% BSA, 11.34 nM Eu-anti-pY (PY20), 187.5 nM SA-XL665 for VEGFR2 and 50 mM HEPES, pH 7.5, 0.1% BSA, 11.34 nM Eu-anti-pY (PT66) (PerkinElmer), 375 nM SA-XL665 (Cisbio) for PDGFR-beta) was then added to each well and the plate sealed and incubated at room temperature for one hour on a plate shaker at 700 rpm. The plate was then read on a Packard Fusion plate reader or a BMG Pherastar both in TRF mode.

[1] = tested on: parental wild-type Ba/F3 cells; assay: Ba/F3 (WT) cell proliferation assay (Alamar Blue); format: cell-based; conditions: BaF3, 72 hours, read-out: BaF3 WT prolif; for IC50: with mouse IL-3
Procedure: as §1, §2

VEGFR2 = biological target: T3, VEGFR2 (Homo sapiens, UniProt P35968); assay: VEGFR2 in vitro kinase inhibitory activity assay (TRF); format: biochemical; conditions: read-out: VEGFR2 IC50(μM) or % I; for IC50: 0.5 μM ATP, 1 hour
T3 construct: purchased Upstate
T3 sequence (P35968 20-1356): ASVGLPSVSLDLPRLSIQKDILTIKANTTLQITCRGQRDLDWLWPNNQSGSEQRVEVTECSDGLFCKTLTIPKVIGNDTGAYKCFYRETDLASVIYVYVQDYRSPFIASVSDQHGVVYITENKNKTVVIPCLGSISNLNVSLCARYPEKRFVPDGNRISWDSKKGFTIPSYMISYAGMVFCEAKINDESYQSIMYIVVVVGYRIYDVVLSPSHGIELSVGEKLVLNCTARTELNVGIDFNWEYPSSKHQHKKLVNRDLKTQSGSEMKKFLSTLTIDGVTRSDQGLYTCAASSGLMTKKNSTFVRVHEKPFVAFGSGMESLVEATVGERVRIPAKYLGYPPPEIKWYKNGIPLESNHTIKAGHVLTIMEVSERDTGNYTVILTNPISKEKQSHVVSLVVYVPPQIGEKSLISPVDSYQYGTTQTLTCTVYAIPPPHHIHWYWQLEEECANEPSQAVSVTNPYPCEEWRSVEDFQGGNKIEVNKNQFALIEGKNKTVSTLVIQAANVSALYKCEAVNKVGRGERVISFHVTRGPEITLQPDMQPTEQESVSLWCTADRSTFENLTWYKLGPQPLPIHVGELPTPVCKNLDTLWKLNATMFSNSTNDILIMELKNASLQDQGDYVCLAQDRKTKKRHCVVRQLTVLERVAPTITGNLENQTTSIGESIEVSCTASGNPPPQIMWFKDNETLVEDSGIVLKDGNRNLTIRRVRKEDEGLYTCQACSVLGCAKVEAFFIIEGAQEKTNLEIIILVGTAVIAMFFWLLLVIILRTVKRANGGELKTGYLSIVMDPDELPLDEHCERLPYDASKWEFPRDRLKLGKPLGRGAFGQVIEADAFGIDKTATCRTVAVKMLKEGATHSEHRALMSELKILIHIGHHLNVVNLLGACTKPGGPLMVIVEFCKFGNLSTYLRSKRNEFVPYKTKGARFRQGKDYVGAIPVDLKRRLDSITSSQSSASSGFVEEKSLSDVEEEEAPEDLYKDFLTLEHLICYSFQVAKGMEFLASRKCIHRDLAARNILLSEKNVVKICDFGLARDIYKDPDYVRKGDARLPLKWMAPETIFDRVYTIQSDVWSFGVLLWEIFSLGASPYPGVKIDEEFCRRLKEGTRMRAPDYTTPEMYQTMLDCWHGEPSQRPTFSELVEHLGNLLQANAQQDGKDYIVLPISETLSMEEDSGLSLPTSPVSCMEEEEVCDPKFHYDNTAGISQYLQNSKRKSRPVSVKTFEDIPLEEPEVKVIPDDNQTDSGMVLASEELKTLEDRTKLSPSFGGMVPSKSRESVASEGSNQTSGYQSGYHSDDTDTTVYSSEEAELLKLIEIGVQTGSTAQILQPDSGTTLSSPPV
Procedure: as §3, §4

T1 sequence (P22607 whole entry, change not shown, the tested form may be a part): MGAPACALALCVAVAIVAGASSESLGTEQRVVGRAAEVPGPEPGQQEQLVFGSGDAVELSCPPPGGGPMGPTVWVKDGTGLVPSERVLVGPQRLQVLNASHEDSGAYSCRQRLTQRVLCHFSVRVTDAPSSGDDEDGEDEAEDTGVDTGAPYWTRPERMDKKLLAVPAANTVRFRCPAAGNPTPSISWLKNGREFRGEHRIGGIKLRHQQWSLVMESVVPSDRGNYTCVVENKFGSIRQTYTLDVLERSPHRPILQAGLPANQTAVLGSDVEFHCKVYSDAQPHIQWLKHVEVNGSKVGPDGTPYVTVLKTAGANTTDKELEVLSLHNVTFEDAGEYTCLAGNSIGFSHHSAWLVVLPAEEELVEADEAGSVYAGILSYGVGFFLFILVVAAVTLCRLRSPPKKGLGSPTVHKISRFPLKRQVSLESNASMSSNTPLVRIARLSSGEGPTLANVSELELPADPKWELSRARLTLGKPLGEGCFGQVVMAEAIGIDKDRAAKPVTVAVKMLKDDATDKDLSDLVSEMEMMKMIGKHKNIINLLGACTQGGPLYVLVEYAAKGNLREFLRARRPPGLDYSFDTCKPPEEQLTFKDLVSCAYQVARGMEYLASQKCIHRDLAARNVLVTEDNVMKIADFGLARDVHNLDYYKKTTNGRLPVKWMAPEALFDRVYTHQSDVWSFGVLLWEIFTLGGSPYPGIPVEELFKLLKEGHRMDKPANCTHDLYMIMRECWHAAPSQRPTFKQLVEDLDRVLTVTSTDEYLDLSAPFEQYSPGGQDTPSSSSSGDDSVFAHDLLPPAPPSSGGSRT

Row | Compound | GI50 (Ba/F3-TEL-FGFR3 cells) [µM] | IC50 (FGFR3) [µM] | IC50 [1] [µM] | IC50 (VEGFR2) [µM] | inhibition at 10 µM ([1]; Mus musculus) [%] | inhibition at 3 µM ([1]; Mus musculus) [%] | inhibition at 1 µM (VEGFR2; 1 h, % I at 1 μM) [%] | inhibition at 1 µM ([1]; Mus musculus, % at 1.00 μM) [%]
1 | COCCON=Cc1ccn2c(-c3cccc(NC(=O)NCC(F)(F)F)c3)cnc2c1 [Compound 1-1, 1-(3-{7-[(2-Methoxy-ethoxyimino)-methyl]-imidazo[1,2-a]pyridin-3-yl}-phenyl)-3-(2,2,2-trifluoro-ethyl)-urea] | 0.21 | 0.0194 | 0.31 | 0.635 | – | – | – | –
2 | COCCOCCON=Cc1ccn2c(-c3cccc(NC(=O)NCC(F)(F)F)c3)cnc2c1 [Compound 1-2, 1-[3-(7-{[2-(2-Methoxy-ethoxy)-ethoxyimino]-methyl}-imidazo[1,2-a]pyridin-3-yl)-phenyl]-3-(2,2,2-trifluoro-ethyl)-urea] | 0.29 | 0.019 | 1.6 | 0.885 | – | – | – | –
3 | O=C(NCC(F)(F)F)Nc1cccc(-c2cnc3cc(C=NOCCCN4CCOCC4)ccn23)c1 [Compound 1-3, 1-(3-{7-[(3-Morpholin-4-yl-propoxyimino)-methyl]-imidazo[1,2-a]pyridin-3-yl}-phenyl)-3-(2,2,2-trifluoro-ethyl)-urea] | 0.31 | 0.018 | 2.8 | 0.682 | – | – | – | –
4 | O=C(NCC(F)(F)F)Nc1cccc(-c2cnc3cc(C=NOCc4ccncc4)ccn23)c1 [Compound 1-4, 1-(3-{7-[(Pyridin-4-ylmethoxyimino)-methyl]-imidazo[1,2-a]pyridin-3-yl}-phenyl)-3-(2,2,2-trifluoro-ethyl)-urea] | 0.26 | 0.014 | 5.3 | 0.23 | – | – | – | –
5 | O=C(NCC(F)(F)F)Nc1cccc(-c2cnc3cc(C=NOc4ncccn4)ccn23)c1 [Compound 1-5, 1-(3-{7-[(Pyrimidin-2-yloxyimino)-methyl]-imidazo[1,2-a]pyridin-3-yl}-phenyl)-3-(2,2,2-trifluoro-ethyl)-urea] | 2.3 | 0.0313 | – | 0.877 | 10 | – | – | –
6 | O=C(NCC(F)(F)F)Nc1cccc(-c2cnc3cc(C=NOCc4ccccn4)ccn23)c1 [Compound 1-6, 1-(3-{7-[(Pyridin-2-ylmethoxyimino)-methyl]-imidazo[1,2-a]pyridin-3-yl}-phenyl)-3-(2,2,2-trifluoro-ethyl)-urea] | – | 0.013 | – | 0.48 | – | – | – | –
7 | O=C(NCC(F)(F)F)Nc1cccc(-c2cnc3cc(C=NOCCOCCO)ccn23)c1 [Compound 1-7, 1-[3-(7-{[2-(2-Hydroxy-ethoxy)-ethoxyimino]-methyl}-imidazo[1,2-a]pyridin-3-yl)-phenyl]-3-(2,2,2-trifluoro-ethyl)-urea] | 0.42 | 0.0185 | – | 0.584 | – | 20 | – | –
8 | O=C(NCC(F)(F)F)Nc1cccc(-c2cnc3cc(C=NOCc4ccc(Cl)s4)ccn23)c1 [Compound 1-8, 1-(3-{7-[(5-Chloro-thiophen-2-ylmethoxyimino)-methyl]-imidazo[1,2-a]pyridin-3-yl}-phenyl)-3-(2,2,2-trifluoro-ethyl)-urea] | 0.0175 | 0.215 | 0.828 | > 10 | – | – | – | –
9 | Cc1nc(CON=Cc2ccn3c(-c4cccc(NC(=O)NCC(F)(F)F)c4)cnc3c2)cs1 [Compound 1-9, 1-(3-{7-[(2-Methyl-thiazol-4-ylmethoxyimino)-methyl]-imidazo[1,2-a]pyridin-3-yl}-phenyl)-3-(2,2,2-trifluoro-ethyl)-urea] | – | 0.014 | – | 0.68 | – | – | – | –
10 | CN1CCC(ON=Cc2ccn3c(-c4cccc(NC(=O)NCC(F)(F)F)c4)cnc3c2)CC1 [Compound 1-10, 1-(3-{7-[(1-Methyl-piperidin-4-yloxyimino)-methyl]-imidazo[1,2-a]pyridin-3-yl}-phenyl)-3-(2,2,2-trifluoro-ethyl)-urea] | 0.14 | 0.019 | 2.8 | 0.27 | – | – | – | –
11 | O=C(NCC(F)(F)F)Nc1cccc(-c2cnc3cc(C=NOCC4CC4)ccn23)c1 [Compound 1-11, 1-{3-[7-(Cyclopropylmethoxyimino-methyl)-imidazo[1,2-a]pyridin-3-yl]-phenyl}-3-(2,2,2-trifluoro-ethyl)-urea] | 0.6 | 0.027 | 0.88 | – | – | – | 46 | –
12 | Cc1noc(C)c1CON=Cc1ccn2c(-c3cccc(NC(=O)NCC(F)(F)F)c3)cnc2c1 [Compound 1-12, 1-(3-{7-[(3,5-Dimethyl-isoxazol-4-ylmethoxyimino)-methyl]-imidazo[1,2-a]pyridin-3-yl}-phenyl)-3-(2,2,2-trifluoro-ethyl)-urea] | 0.24 | 0.018 | – | 0.54 | 38 | – | – | –
13 | Cc1cc(CON=Cc2ccn3c(-c4cccc(NC(=O)NCC(F)(F)F)c4)cnc3c2)n(C)n1 [Compound 1-13, 1-(3-{7-[(2,5-Dimethyl-2H-pyrazol-3-ylmethoxyimino)-methyl]-imidazo[1,2-a]pyridin-3-yl}-phenyl)-3-(2,2,2-trifluoro-ethyl)-urea] | 0.3 | 0.03 | – | 0.66 | – | – | – | 46
14 | CC(C)(C)c1nc(CON=Cc2ccn3c(-c4cccc(NC(=O)NCC(F)(F)F)c4)cnc3c2)no1 [Compound 1-14, 1-(3-{7-[(5-tert-Butyl-[1,2,4]oxadiazol-3-ylmethoxyimino)-methyl]-imidazo[1,2-a]pyridin-3-yl}-phenyl)-3-(2,2,2-trifluoro-ethyl)-urea] | 0.56 | 0.027 | – | 0.68 | – | 43 | – | –
15 | O=C(NCC(F)(F)F)Nc1cccc(-c2cnc3cc(C=NOCc4ccco4)ccn23)c1 [Compound 1-15, 1-(3-{7-[(Furan-2-ylmethoxyimino)-methyl]-imidazo[1,2-a]pyridin-3-yl}-phenyl)-3-(2,2,2-trifluoro-ethyl)-urea] | 0.043 | 0.026 | 4.6 | 0.98 | – | – | – | –
16 | Nc1nc(CON=Cc2ccn3c(-c4cccc(NC(=O)NCC(F)(F)F)c4)cnc3c2)cs1 [Compound 1-16, 1-(3-{7-[(2-Amino-thiazol-4-ylmethoxyimino)-methyl]-imidazo[1,2-a]pyridin-3-yl}-phenyl)-3-(2,2,2-trifluoro-ethyl)-urea] | 1.3 | 0.018 | – | 0.61 | 19 | – | – | –
17 | Cn1cncc1CO/N=C/c1ccn2c(-c3cccc(NC(=O)NCC(F)(F)F)c3)cnc2c1 [Compound 1-20, 1-(3-{7-[(3-Methyl-3H-imidazol-4-ylmethoxyimino)-methyl]-imidazo[1,2-a]pyridin-3-yl}-phenyl)-3-(2,2,2-trifluoro-ethyl)-urea] | – | 0.0071 | – | 0.36 | – | – | – | –
18 | CO/N=C(\C)c1ccn2c(-c3cccc(NC(=O)NCC(F)(F)F)c3)cnc2c1 [Compound 1-22] | – | 0.0051 | – | 0.092 | – | – | – | –
19 | COCCN(C)CCON=Cc1ccn2c(-c3cccc(NC(=O)NCC(F)(F)F)c3)cnc2c1 [Compound 1-40, 1-{3-[7-({2-[(2-Methoxy-ethyl)-methyl-amino]-ethoxyimino}-methyl)-imidazo[1,2-a]pyridin-3-yl]-phenyl}-3-(2,2,2-trifluoro-ethyl)-urea] | – | 0.028 | – | 0.72 | – | – | – | –
20 | C/C(=N\OCCCN1CCOCC1)c1ccn2c(-c3cccc(NC(=O)NCC(F)(F)F)c3)cnc2c1 [Compound 1-44, 1-[3-(7-{1-3-Morpholin-4-yl-propoxyimino-ethyl}-imidazo[1,2-a]pyridin-3-yl)-phenyl]-3-(2,2,2-trifluoro-ethyl)-urea] | – | 0.0038 | – | 0.059 | – | – | – | –
21 | CC(C)Oc1cc(NC(=O)NCC(F)(F)F)cc(-c2cnc3cc(/C(=N\OCCO)C4CC4)ccn23)c1 [Compound 1-64, 1-[3-(7-{Cyclopropyl-[(Z)-2-hydroxyethoxyimino]-methyl}-imidazo[1,2-a]pyridin-3-yl)-5-isopropoxy-phenyl]-3-(2,2,2-trifluoro-ethyl)-urea] | 0.5 | 0.03 | – | 1.2 | – | – | – | –
